Source: patent US9650339B2, “Inhibitors of histone demethylases” (Gilead Sciences, Inc., priority 2013, dated 2017)

What was measured:
KDM4C (JMJD2C) = molecular target: T1, KDM4C (JMJD2C) (Homo sapiens, UniProt Q9H3R0); assay: Histone lysine demethylase AlphaLISA assay, KDM4C; format: biochemical; conditions: read-out: KDM4C HDME Inhibition IC50
T1 sequence (Q9H3R0 1-349): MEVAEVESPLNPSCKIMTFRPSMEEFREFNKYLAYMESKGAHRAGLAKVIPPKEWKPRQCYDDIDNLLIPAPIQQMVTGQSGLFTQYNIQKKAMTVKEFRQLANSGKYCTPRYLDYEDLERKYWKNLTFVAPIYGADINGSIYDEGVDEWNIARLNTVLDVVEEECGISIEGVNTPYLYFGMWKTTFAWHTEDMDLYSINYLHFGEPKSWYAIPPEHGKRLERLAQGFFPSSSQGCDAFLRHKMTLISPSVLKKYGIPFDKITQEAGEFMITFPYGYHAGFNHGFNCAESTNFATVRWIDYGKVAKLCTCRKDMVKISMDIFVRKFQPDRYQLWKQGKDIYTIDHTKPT
Procedure, shortened: (§1)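 Steps: enzyme equilibrated 10 min in buffer; compounds in 3% DMSO solution added, 10 min; substrate mix added (peptide, 25 μM L-Asc, 10 μM α-KG), room temperature; acceptor beads, then streptavidin donor beads, dark incubations; plate read.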

KDM3A (JMJD1A) = molecular target: T2, KDM3A (JMJD1A) (Homo sapiens, UniProt Q9Y4C1); assay: Histone lysine demethylase AlphaLISA assay, KDM3A; format: biochemical; conditions: read-out: KDM3 A HDME Inhibition IC50
T2 construct: 2-end; purchased BPS Bioscience, US; host or cells: Bac (baculovirus system)
T2 sequence (Q9Y4C1 2-1321 limits assumed): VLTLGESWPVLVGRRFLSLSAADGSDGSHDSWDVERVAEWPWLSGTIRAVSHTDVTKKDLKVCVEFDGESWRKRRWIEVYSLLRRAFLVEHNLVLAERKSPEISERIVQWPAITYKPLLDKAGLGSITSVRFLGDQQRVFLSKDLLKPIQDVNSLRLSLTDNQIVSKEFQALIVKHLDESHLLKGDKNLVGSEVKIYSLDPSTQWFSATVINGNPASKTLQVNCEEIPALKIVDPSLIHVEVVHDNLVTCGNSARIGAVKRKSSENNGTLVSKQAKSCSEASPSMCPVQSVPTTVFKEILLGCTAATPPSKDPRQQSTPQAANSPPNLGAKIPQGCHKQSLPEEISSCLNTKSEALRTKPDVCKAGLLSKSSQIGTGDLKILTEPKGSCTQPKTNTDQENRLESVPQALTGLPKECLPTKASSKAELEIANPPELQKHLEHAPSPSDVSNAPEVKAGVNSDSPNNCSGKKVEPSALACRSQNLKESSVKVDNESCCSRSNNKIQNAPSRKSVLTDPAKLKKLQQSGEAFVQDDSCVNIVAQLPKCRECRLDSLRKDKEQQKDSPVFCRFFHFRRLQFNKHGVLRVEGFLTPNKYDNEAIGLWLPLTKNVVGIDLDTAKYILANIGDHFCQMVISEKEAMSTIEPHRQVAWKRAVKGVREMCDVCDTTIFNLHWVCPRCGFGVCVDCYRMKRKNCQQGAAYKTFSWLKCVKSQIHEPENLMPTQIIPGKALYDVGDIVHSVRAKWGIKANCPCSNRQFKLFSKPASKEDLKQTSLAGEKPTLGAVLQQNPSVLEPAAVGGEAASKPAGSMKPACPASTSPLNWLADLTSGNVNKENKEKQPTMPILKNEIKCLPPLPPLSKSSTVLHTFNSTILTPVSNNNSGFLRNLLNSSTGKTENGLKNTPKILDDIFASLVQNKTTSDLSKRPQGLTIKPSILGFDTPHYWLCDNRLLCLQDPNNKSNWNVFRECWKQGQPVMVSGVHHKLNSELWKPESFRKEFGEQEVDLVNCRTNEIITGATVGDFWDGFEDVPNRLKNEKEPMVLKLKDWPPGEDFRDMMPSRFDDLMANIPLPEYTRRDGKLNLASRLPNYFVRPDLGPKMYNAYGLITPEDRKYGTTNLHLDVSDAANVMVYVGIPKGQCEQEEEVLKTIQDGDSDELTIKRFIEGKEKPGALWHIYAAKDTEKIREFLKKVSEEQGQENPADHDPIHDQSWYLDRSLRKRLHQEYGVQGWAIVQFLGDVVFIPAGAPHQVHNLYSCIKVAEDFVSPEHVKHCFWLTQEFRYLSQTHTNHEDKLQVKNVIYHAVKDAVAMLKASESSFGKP
Procedure, shortened: as §1

Row | SMILES | IC50 (KDM4C (JMJD2C)) [nM] | IC50 (KDM3A (JMJD1A)) [nM]
1 | CN(C)CCNCc1ccnc(CNCCCN(C)Cc2ccccc2)c1 [Compound 18, benzyl[3-({[4-({[2-(dimethylamino)ethyl]-amino}methyl)pyridin-2-yl]methyl}-amino)propyl]-methylamine] | > 2500 | > 2500
2 | COc1ccccc1CN1CCC(NC(=O)CNCc2cc(CNC3CC3)ccn2)CC1 [Compound 20, 2-[({4-[(cyclopropylamino)-methyl]pyridin-2-yl}methyl)amino]-N-{1-[(2-methoxyphenyl)methyl]-piperidin-4-yl}acetamide] | 250 to 2500 | > 2500
3 | CCN(CCN(C)C)C(=O)CN(Cc1cc(CNC(=O)C(F)(F)F)ccn1)C(=O)C(F)(F)F [Compound 26, N-[(2-{[N-({[2-(dimethylamino)ethyl]-(ethyl)carbamoyl}-methyl)-2,2,2-trifluoroacetamido]-methyl}pyridin-4-yl)methyl]-2,2,2-trifIuoroacetamide] | > 2500 | 
4 | CCN(CC)CCCCNCc1cc(C2NCCCN2C)ccn1 (stereo not shown) [Compound 68, [4-(diethylamino)butyl]({[4-(1-methyl-1,3-diazinan-2-yl)pyridin-2-yl]methyl})amine] | 250 to 2500 | 
5 | O=Cc1ccnc(CNCCCCN(Cc2ccccc2)C2CC2)c1 [Compound 109, 2-[({4-[benzyl-(cyclopropyl)amino]-butyl}amino)methyl]-pyridine-4-carbaldehyde] | 250 to 2500 | > 2500

The remaining lines, values ahead:

Row | IC50 (KDM4C (JMJD2C)) [nM] | IC50 (KDM3A (JMJD1A)) [nM] | SMILES
6 | > 2500 | > 2500 | CN(C)CCCCNCc1cc(CN)ccn1 [Compound 2, [2-({[4-(dimethylamino)butyl]-amino}methyl)pyridin-4-yl]methanamine]
7 | > 2500 | > 2500 | COCCNCc1ccnc(CNCCCN(C)Cc2ccccc2)c1 [Compound 19, benzyl(3-{[(4-{[(2-methoxyethyl)amino]-methyl}pyridin-2-yl)methyl]amino}-propyl)methylamine]
8 | 250 to 2500 | > 2500 | COC(=O)CNCc1cc(/C=N/C2CC2)ccn1 [Compound 59, methyl 2-[({4-[N-cyclopropyl-carboximidoyl]pyridin-2-yl}methyl)amino]-acetate]
9 | 250 to 2500 | > 2500 | O=Cc1ccnc(CNCC(=O)NC2CCN(Cc3ccccc3)C2)c1 (stereo not shown) [Compound 113, N-(1-benzylpyrrolidin-3-yl)-2-{[(4-formylpyridin-2-yl)methyl]amino}-acetamide]
